Source: US5541183A, “Ginkgolide derivatives” (priority 1993, dated 1996)
Like-named read-outs stand apart in the source and are kept apart here.

How the values were obtained:
[1] = test system: Ag-induced bronchoconstriction; assay: Ag-induced bronchoconstriction in the guinea pig; format: in vivo, guinea pig (Hartley strain); settings: for ED50: Cavia porcellus, iv, 10 min, read-out: ID50, Ag-induced bronchoconstriction
Description: Pharmacology Example 3: Ag-induced bronchoconstriction
All experiments utilized male guinea pigs (Hartley strain), weighing 350 to 500 g. The animal was passively sensitized with rabbit anti-chicken egg albumin (1.3 mg/kg), 17-24 hrs before ovaibumin challenge. Passively sensitized animals were anesthetized with ethyl carbamate 1.5 g/kg, i.p.). An intratracheal cannula was inserted into trachea and indwelling catheters were inserted into the right carotid artery and left jugular vein. The animals were ventilated with a small animal respirator (UGO BASILE 7025, 70 breaths/min, 1 ml/stroke/100 g). To monitor dead or not, mean arterial pressure was measured continuously with a pressure transducer (Physiological Pressure Transducer, MICRON INSTRUMENT MP-15) connected to an amplifier (COULBOURN INSTRUMENT 572-25) and recorder (COULBOURN INSTRUMENT R14-18). The rate of bronchoconstriction was measured as an increase in lung overflow with a bronchospasm transducer (UGO BASILE 7020) from a side arm off the tracheal cannula, and expressed as a percentage of maximum broncoconstriction obtained by clamping off the tracheal cannular. Test compounds or vehicle (0.5% DMSO) were administered through the cannula into the jugular vein and ovalbumin (1.0 mg/kg, i.v.) was administered 10 minutes later. Bronchoconstriction response was compared to that obtained with control group treated with vehicle. Percent inhibition was calculated for each dose. If necessary, log dose-response curves were generated and the ID50 values were determined by regression analysis.

[2] = test system: PAF-induced rabbit platelet aggregation; assay: PAF-induced rabbit platelet aggregation; format: cell-based, rabbit (New Zealand white); settings: Oryctolagus cuniculus, read-out: IC50, inhibition of PAF-induced rabbit platelet aggregation
Description: Pharmacology Example 1: PAF-induced rabbit platelet aggregation
Blood was collected from the ear artery of a male New Zealand white rabbit and mixed with 3.8% sodium citrate in a 9:1 volume ratio. Platelet rich plasma (PRP) was obtained by centrifugation of the blood at 150 g for 10 min at room temperature. The number of platelets was adjusted to 3×10^8 platelets/ml with platelet poor plasma. Platelet aggregation was monitored by continuous recording of light transmission in a dual-channel aggregometer (Chrono-Log 560-VS) coupled with a two channel recorder (Chrono-Log 707). Stirred PRP was treated with various concentrations of the test compounds or vehicle (0.5% DMSO) for 2 min and then PAF(5×10^-9 M) was added to induce platelet aggregation.
Inhibition values were calculated by comparing the extent of aggregation obtained in the presence of the vehicle alone (0.5% DMSO) and in the presence of a test compound. Log concentration-response curves were generated and the IC50 values were determined by regression analysis.
Table 1 lists results from this assay for inhibition of PAF-induced rabbit platelet aggregation for illustrative examples of the compounds of this invention.

bronchial eosinophilia = assay: aeroallergen-induced bronchial infiltration of eosinophils in the bronchoalveolar lavage fluid; format: in vivo, guinea pig (Hartley strain); settings: 30 mg/kg p.o., + 4h after aeroallergen challenge
Description: Pharmacology Example 4: The aeroallergen-induced bronchial infiltration of eosinophils in the bronchoalveolar lavage fluid.
Adult, male Hartley-strain guinea pigs weighing 492-735 g were sensitized by intraperitoneal injection of 10 μg ovalbumin (OA) mixed in 100-mg aluminum hydroxide. And guinea pigs were pretreated with pyrilamine (1.0 mg/kg) intraperitoneally 30 min. before aeroallergen challenge. Individual guinea pigs were placed in a two-liter glass chamber and exposed to a five aerosol of OA solution (0.5 mg/ml in saline containing 0.02% antifoal emulsion for a period of 10 min.).
4 hours after aero allergen challenge, the guinea pigs received either vehicle or compounds suspended in 1% acacia by oral garage.
24 hours after aero allergen challenge, the animals were euthanized with an i.p. overdose of pentobarbital sodium (100 mg/kg). The abdominal cavity was opened, and the animal was exsaguinated by cutting the abdominal aorta. A midline incision was made through the rib cage, exposing the heart and lungs.
The trachea was cannulated with an 18-gauge stainless steel feeding tube; 20 ml/kg of prewarmed (37° C.) physiological saline was instilled and the BALF was gently withdrawn.
BALF (amounting to 60-80% of the saline infused) was transferred to a 10 ml vacutainer containing 0.10 ml of 15% EDTA solution and centrifugated at 2400 rpm for 10 min.
The supernatant was poured off, and the cell pellet was suspended in physiological saline equal to the ratio of BALF recovered (ml) and physiological saline instilled in the lungs (ml), multiplied by two.
The eosinophils in BALF were counted by Unopette Test 5877.
The mean numbers of eosinophils±SEM in the BALF of compound-treated animals and corresponding control "vehicle"-treated animals were compared by Student's t-test. A P value of 0.05 or less was considered significant. Table 4 lists results from this assay for inhibition of bronchial eosinophilia for illustrative examples of this invention.

[3] = test system: PAF-induced bronchoconstriction; assay: PAF-induced bronchoconstriction in the guinea pig; format: in vivo, guinea pig (Hartley strain); settings: for % inhibition of PAF-induced bronchoconstriction: jugular vein, PAF 100 ng/kg i.v.
Description: Pharmacology Example 2: PAF-induced bronchoconstriction
All experiments utilized male guinea pigs (Hartley strain), weighing 350 to 450 g, that were anesthetized with ethyl carbamate (1.5 g/kg, i.p.). An intratracheal cannula was inserted into trachea and indwelling catheters were inserted into the right carotid artery and left jugular vein. The animals were ventilated with a small animal respirator (UGO BASILE 7025, 70 breaths/min, 1 ml/stroke/100 g). To monitor dead or not, mean arterial pressure was measured continuously with a pressure transducer (Physiological Pressure Transducer, MICRON INSTRUMENT MP-15) connected to an amplifier (COULBOURN INSTRUMENT 572-25) and recorder (COULBOURN INSTRUMENT R14-18). The rate of bronchoconstriction was measured as an increase in lung overflow with a bronchospasm transducer (UGO BASILE 7020) from a side arm off the tracheal cannula, and expressed as a percentage of maximum bronchoconstriction obtained by clamping off the tracheal cannula. Test compounds or vehicle (0.5% DMSO) were administered through the cannula into the jugular vein and PAF (100 ng/kg, i.v.) was administered. Bronchoconstriction response was compared to that obtained with control group treated with vehicle. Percent inhibition was calculated for each dose. Log dose-response curves were generated and the ID50 values were determined by regression analysis, and the results are presented in Table 2.
Table 2: Results for inhibition of PAF-induced bronchoconstriction in the guinea pig.

[4] = 0.1 mg/kg, jugular vein, ovalbumin 1.0 mg/kg i.v. 10 minutes later
[5] = 0.5 mg/kg, jugular vein, ovalbumin 1.0 mg/kg i.v. 10 minutes later
[6] = 1.0 mg/kg, jugular vein, ovalbumin 1.0 mg/kg i.v. 10 minutes later
[7] = jugular vein, ovalbumin 1.0 mg/kg i.v. 10 minutes later

Compound: COc1c(C)cnc(COC2C(=O)OC3OC45C(=O)OC6CC(C(C)(C)C)C32C64C(O)C2OC(=O)C(C)C25O)c1C (centres unmarked) [Example 97, 10-(4-methoxy-3,5-dimethyl-2-pyridinyl) -methoxy-Ginkgolide B]
- % inhibition of Ag-induced bronchoconstriction [1, 4]: 30%
- % inhibition of Ag-induced bronchoconstriction [1, 5]: 68%
- % inhibition of Ag-induced bronchoconstriction [1, 6]: 100%
- ED50 [1, 7]: 0.42 mg/kg
- IC50 ([2]; rabbit PRP, PAF 5×10^-9 M): 0.0389 µM

Compound: CC1C(=O)OC2C(O)C34C5CC(C(C)(C)C)C36C(OC(=O)C6OCc3ccccn3)OC4(C(=O)O5)C12O (centres unmarked) [Example 99, 10-(2-pyridinyl)-methoxy-Ginkgolide B]
- % inhibition of Ag-induced bronchoconstriction [1, 4]: 42%
- % inhibition of Ag-induced bronchoconstriction [1, 5]: 73%
- % inhibition of Ag-induced bronchoconstriction [1, 6]: 100%
- ED50 [1]: 0.31 mg/kg
- IC50 [2]: 0.0307 µM

Compound: Cc1cnc(COC2C(=O)OC3OC45C(=O)OC6CC(C(C)(C)C)C32C64C(O)C2OC(=O)C(C)C25O)c(C)c1N (centres unmarked) [Example 103, 10-(3,5-dimethyl-4-amino-2-pyridinyl)-methoxy-Ginkgolide B]
- % inhibition of Ag-induced bronchoconstriction [1, 4]: 10%
- % inhibition of Ag-induced bronchoconstriction [1, 5]: 62%
- % inhibition of Ag-induced bronchoconstriction [1, 6]: 97%
- ED50 [1, 7]: 0.48 mg/kg
- IC50 ([2]; rabbit PRP, PAF 5×10^-9 M): 0.0877 µM

Compound: CC1C(=O)OC2C(O)C34C5CC(C(C)(C)C)C36C(OC(=O)C6OCc3ccc(Cl)nc3)OC4(C(=O)O5)C12O (centres unmarked) [Example 107, 10-(6-chloro-3-pyridinyl)-methoxy-Ginkgolide B]
- IC50 ([2]; rabbit PRP, PAF 5×10^-9 M): 0.157 µM

Compound: CC1C(=O)OC2C(O)C34C5CC(C(C)(C)C)C36C(OC(=O)C6OCc3cccnc3)OC4(C(=O)O5)C12O (centres unmarked) [Example 108, 10-(3-pyridinyl)-methoxy-Ginkgolide B]
- IC50 ([2]; rabbit PRP, PAF 5×10^-9 M): 0.134 µM

Compound: CC1C(=O)OC2C(O)C34C5CC(C(C)(C)C)C36C(OC(=O)C6OCc3ccncc3)OC4(C(=O)O5)C12O (centres unmarked) [Example 109, 10-(4-pyridinyl)-methoxy-Ginkgolide B]
- IC50 ([2]; rabbit PRP, PAF 5×10^-9 M): 0.122 µM

Compound: CCOc1ccnc(COC2C(=O)OC3OC45C(=O)OC6CC(C(C)(C)C)C32C64C(O)C2OC(=O)C(C)C25O)c1 (centres unmarked) [Example 110]
- IC50 ([2]; rabbit PRP, PAF 5×10^-9 M): 0.157 µM

Compound: CC1C(=O)OC2C(O)C34C5CC(C(C)(C)C)C36C(OC(=O)C6OCc3cc([N+](=O)[O-])ccn3)OC4(C(=O)O5)C12O (centres unmarked) [Example 111, 10-(4-nitro-2-myridinyl)-methoxy Ginkgolide B]
- IC50 ([2]; rabbit PRP, PAF 5×10^-9 M): 0.107 µM

Compound: CCCOc1ccc(C)nc1COC1C(=O)OC2OC34C(=O)OC5CC(C(C)(C)C)C21C53C(O)C1OC(=O)C(C)C14O (centres unmarked) [Example 112]
- IC50 ([2]; rabbit PRP, PAF 5×10^-9 M): 0.124 µM

Compound: CC1C(=O)OC2C(O)C34C5CC(C(C)(C)C)C36C(OC(=O)C6OCc3cc(NO)ccn3)OC4(C(=O)O5)C12O (centres unmarked) [Example 113, 10-(2-(4-hydroxyaminopyridinyl)-methoxy)-Ginkgolide B]
- IC50 ([2]; rabbit PRP, PAF 5×10^-9 M): 0.111 µM

Compound: COCCOCOc1ccc(COC2C(=O)OC3OC45C(=O)OC6CC(C(C)(C)C)C32C64C(O)C2OC(=O)C(C)C25O)nc1 (centres unmarked) [Example 114]
- IC50 [2]: 0.139 µM

Compound: CC1C(=O)OC2C(O)C34C5CC(C(C)(C)C)C36C(OC(=O)C6OCCBr)OC4(C(=O)O5)C12O (centres unmarked) [Example 116, 10-(2'-bromoethoxy)-Ginkgolide B]
- IC50 ([2]; rabbit PRP, PAF 5×10^-9 M): 0.113 µM

Compound: CC1C(=O)OC2C(O)C34C5CC(C(C)(C)C)C36C(OC(=O)C6OCCI)OC4(C(=O)O5)C12O (centres unmarked) [Example 117, 10-(2'-iodoethoxy)-Ginkgolide B]
- IC50 [2]: 0.0534 µM

Compound: CC1C(=O)OC2C(O)C34C5CC(C(C)(C)C)C36C(OC(=O)C6OCCN3CCCCC3)OC4(C(=O)O5)C12O (centres unmarked) [Example 118, 10-(2'-(1"-piperidinyl)-ethoxy)-Ginkgolide B]
- IC50 ([2]; rabbit PRP, PAF 5×10^-9 M): 0.0471 µM

Compound: CC1C(=O)OC2C(O)C34C5CC(C(C)(C)C)C36C(OC(=O)C6OCCN3CCOCC3)OC4(C(=O)O5)C12O (centres unmarked) [Example 119, 10-(2'-(1"-morpholinyl)-ethoxy)-Ginkgolide B]
- IC50 ([2]; rabbit PRP, PAF 5×10^-9 M): 0.0541 µM

Compound: CC1C(=O)OC2C(O)C34C5CC(C(C)(C)C)C36C(OC(=O)C6OCCn3cncn3)OC4(C(=O)O5)C12O (centres unmarked) [Example 120, 10-(2'-(1"-(1",2",4"-triazolyl)-ethoxy))-Ginkgolide B]
- IC50 ([2]; rabbit PRP, PAF 5×10^-9 M): 0.0621 µM

Compound: CC1C(=O)OC2C(O)C34C5CC(C(C)(C)C)C36C(OC(=O)C6OCCN3CCNCC3)OC4(C(=O)O5)C12O (centres unmarked) [Example 121, 10-(2'-(1"-piperazinyl)-ethoxy)-Ginkgolide B]
- IC50 ([2]; rabbit PRP, PAF 5×10^-9 M): 0.0571 µM

Compound: CC1C(=O)OC2C(O)C34C5CC(C(C)(C)C)C36C(OC(=O)C6OCCN3CCCC3)OC4(C(=O)O5)C12O (centres unmarked) [Example 122, 10-(2'-(1"-pyrrolidinyl)-ethoxy)-Ginkgolide B]
- IC50 ([2]; rabbit PRP, PAF 5×10^-9 M): 0.0561 µM

Compound: CC1C(=O)OC2C(O)C34C5CC(C(C)(C)C)C36C(OC(=O)C6O)OC4(C(=O)O5)C12O (centres unmarked) [Ginkgolide B, reference compound]
- % Inhibition of bronchial eosinophilia (bronchial eosinophilia; at 24 hours): 0%
- Eosinophils in BALF (Mean ± SEM) (bronchial eosinophilia; counted at 24 hours, vehicle 927 ± 131): 1148 ± 305 10^3 cells/m1 BALF
- % inhibition of PAF-induced bronchoconstriction ([3]; 0.50 mg/kg): 38%
- % inhibition of PAF-induced bronchoconstriction ([3]; 1.00 mg/kg): 64%
- % inhibition of PAF-induced bronchoconstriction ([3]; 2.00 mg/kg): 100%
- ED50 ([3]; Cavia porcellus, iv, read-out: ID50, PAF-induced bronchoconstriction): 0.6 mg/kg
- % inhibition of Ag-induced bronchoconstriction [1, 4]: 10%
- % inhibition of Ag-induced bronchoconstriction [1, 5]: 42%
- % inhibition of Ag-induced bronchoconstriction [1, 6]: 82%
- ED50 [1, 7]: 0.83 mg/kg
- IC50 ([2]; rabbit PRP, PAF 5×10^-9 M): 0.258 µM
